Patent US20250345277A1, “Ionizable Liposome, Preparation Thereof, and Application Thereof in Gene Delivery” (MAXIRNA (ZHEJIANG) TECHNOLOGY CO. LTD., priority 2021, published 2025)

Legend:
[1] = Size and polydispersity index PDI of lipid nanoparticles (Malvern Zetasizer Nano ZS); assay type: physicochemical; details: LNP ionizable lipid/DOPE/cholesterol/DSPE-PEG2000 35/16/46.5/2.5 mol% encapsulating EGFP mRNA; for Particle Size: in nm (unit assumed)
Protocol: (§1) The ionizable lipid compound of Example 1 was dissolved in ethanol with DOPE, cholesterol and DSPE-PEG2000 (all purchased from AVT (Shanghai) Pharmaceutical Technology Co., Ltd.) at a molar ratio of 35:16:46.5:2.5 to prepare ethanol lipid solution, and enhanced green fluorescent protein (EGFP) mRNAs (Shanghai Maximna Pharmaceutical Engineering Co., Ltd., JN-4201) were diluted in 20 mM citrate buffer (pH=6.1) to obtain mRNA aqueous solution. Ethanol lipid solution and mRNA aqueous solution were mixed at a volume ratio of 1:3 by using a microfluidic device (Micro&Nano (Shanghai) Instrument Technology Co., Ltd., model: INano™ML), LNPs were prepared with a weight ratio of approximately 10:1 between total lipids and mRNAs. The medium was replaced by ultrafiltration, ethanol was removed and volumed with DPBS. Finally, the lipid nanoparticles were filtered through a 0.2 μm sterile filter to obtain a LNP formulation encapsulating eGFP mRNA using ionizable lipid/DOPE/cholesterol/DSPE-PEG2000 (35/16/46.5/2.5 mol %), the concentration of mRNAs being 0.002 mg/mL-0.5 mg/mL.
Using Malvern Zetasizer Nano ZS (Malvern UK), the size and polydispersity index PDI of lipid nanoparticles were measured at […].

[2] = Entrapment efficiency of LNP preparation encapsulating EGFP mRNA; assay type: physicochemical; details: LNP ionizable lipid/DOPE/cholesterol/DSPE-PEG2000 35/16/46.5/2.5 mol% encapsulating EGFP mRNA
Protocol: as §1, with “mg/mL. […]” for “mg/mL.”

[3] = tested on: DC2.4 cells; assay: In vitro transfection of DC2.4 cells with EGFP mRNA LNP preparation (flow cytometry); assay type: cell-based, mouse; details: DC2.4 cells; for Cell Viability / Positive Rate (EGFP): EGFP mRNA LNP, 200 ng mRNA per well, flow cytometry; for Fluorescence Intensity: EGFP mRNA expression level, normalized based on the sample with the highest fluorescence intensity
Source text: The description is based on peripheral blood mononuclear cells PBMC (Shanghai Oribiotech Co., Ltd.), human peripheral blood leukemia T cell Jurkat (ATCC), tumor infiltrating lymphocyte TIL (isolated from resected tumor tissue of a liver cancer patient, the preparation method refers to CN114763530A), mouse bone marrow-derived dendritic cells DC2.4 (Cell Bank of the Chinese Academy of Sciences), and Chinese hamster ovary cells CHO (ATCC) were used as verified cell lines for liposome transfection. PBMC, Jurkat, and TIL cells grew in suspension, while DC2.4 and CHO cells grew by adherent culture. All the operation steps of cell culture must strictly abide by the prescribed procedures, and sterile reagents is used to perform aseptic operations under a sterile workbench. The main steps are as follows: • 1) Cell recovery: the preserved cell cryopreservation solution was taken out of the −80° C. refrigerator, and was immediately put in a 37° C. water bath for rapid and continuous shaking, and was completely melted within one minute. Fresh medium was added to the 15 mL centrifuge tube in advance, and the cell solution was added to the centrifuge tube in a biological safety cabinet. A centrifuge tube of the same quality was taken and placed symmetrically in a centrifuge, centrifuged at a low speed at 1200 rpm for 5 min. After centrifugation, the supernatant was removed, and an appropriate amount of medium was slowly added along the tube wall. After the cells were evenly dispersed by blowing gently, the cell suspension was pipette and added to the culture bottle prepared in advance. The state and distribution of the cells in the early stage of recovery were observed under a microscope. The culture bottle was placed in a 5% CO2 incubator and incubated at 37° C., and the recovery time was recorded. • 2) Cell subculture: Under the microscope, if the cell density in the field of view reaches 80%-90%, the cells can be subcultured. Adherent cells need to be digested with trypsin. In order to avoid the residual serum in the culture medium to reduce the activity of trypsin, DPBS solution was added to wash once after removing the original culture medium. After remove the DPBS solution, trypsin was added to degrade the protein at the junction between cells. This separates the cells for further culture. The cells were gently shaked evenly and put into the incubator for digestion for 2 min. Immediately after the digestion was completed, an appropriate amount of medium was added to the original petri dish to terminate the digestion. Finally, the cells were carefully blowed off using a pipette and blowed until they are evenly dispersed, and then inoculated and subcultured at a certain ratio according to the experimental requirements. […]
• 1) DC2.4 cells recovery: the frozen DC2.4 cells were taken out from the −80° C. refrigerator, put in a 37° C. water bath to quickly thaw the cells, added to the preheated medium after thawing, centrifuged at 1200 rpm for 5 min, the supernatant was discarded, and an appropriate amount of DMEM medium with 10% FBS was added to resuspend the recovered DC2.4, and placed in a 5% CO2 incubator at 37° C. for activation and culture. • 2) According to the experimental arrangement, DC2.4 cells were plated on a 24-well plate one day in advance for cell transfection. Through cell counting, the number of cells and cell viability were recorded, the cell suspension were taken at 2×10^5 cells per well, then a certain volume of DMEM medium containing 10% FBS was added and mixed evenly, 1 mL of mixture was added to each well for subsequent transfection experiment. • 3) After 24 hours, the medium was gently removed 30 minutes in advance by a pipette, 1 mL DPBS was added to each well for washing and then removed, then 300 μL serum-free Opti-MEM medium was added to each well for subsequent transfection experiments.
Subsequent steps are the same as the transfection protocol for PBMC cells. […]

PDI [1]	Particle Size [1]	Entrapment Efficiency [2] [%]	Compound	Cell Viability [3] [%]	Positive Rate (EGFP) [3] [%]	Fluorescence Intensity [3]
0.121	126.1	83.58	CCCCCCCCCCCCC(O)CN(CCOCCN(CCOCCN(CC(O)CCCCCCCCCCCC)CC(O)CCCCCCCCCCCC)CCN1CCN(CCO)CC1)CC(O)CCCCCCCCCCCC (stereo not drawn) [J-C14]	>99.0	59.1	0.06
0.077	104.1	81.08	CCCCCCCCCCCCCCC(O)CN(CCOCCN(CCOCCN(CC(O)CCCCCCCCCCCCCC)CC(O)CCCCCCCCCCCCCC)CCN1CCN(CCO)CC1)CC(O)CCCCCCCCCCCCCC (stereo not drawn) [J-C16]	85.2	62.0	0.04
0.163	93.7	88.56	CCCCCCCCCCCCCCCCC(O)CN(CCOCCN(CCOCCN(CC(O)CCCCCCCCCCCCCCCC)CC(O)CCCCCCCCCCCCCCCC)CCN1CCN(CCO)CC1)CC(O)CCCCCCCCCCCCCCCC (stereo not drawn) [J-C18]	83.6	60.9	0.04
0.075	75.9	92.83	CCCCCCCCCCC(O)CN(CCOCCOCCN(CCOCCOCCN(CC(O)CCCCCCCCCC)CC(O)CCCCCCCCCC)CCN1CCN(CCO)CC1)CC(O)CCCCCCCCCC (stereo not drawn) [K-C12]	>99.0	62.8	0.07
0.155	122.7	87.00	CCCCCCCCCCCCC(O)CN(CCOCCOCCN(CCOCCOCCN(CC(O)CCCCCCCCCCCC)CC(O)CCCCCCCCCCCC)CCN1CCN(CCO)CC1)CC(O)CCCCCCCCCCCC (stereo not drawn) [K-C14]	82.3	59.8	0.03
0.185	76.0	95.74	CCCCCCCCCCCCCCC(O)CN(CCOCCOCCN(CCOCCOCCN(CC(O)CCCCCCCCCCCCCC)CC(O)CCCCCCCCCCCCCC)CCN1CCN(CCO)CC1)CC(O)CCCCCCCCCCCCCC (stereo not drawn) [K-C16]	93.4	60.2	0.04
0.134	124.2	92.77	CCCCCCCCCCCCCCCCC(O)CN(CCOCCOCCN(CCOCCOCCN(CC(O)CCCCCCCCCCCCCCCC)CC(O)CCCCCCCCCCCCCCCC)CCN1CCN(CCO)CC1)CC(O)CCCCCCCCCCCCCCCC (stereo not drawn) [K-C18]	>99.0	74.7	0.05
0.181	88.4	93.38	CCCCCCCCCCC(O)CN(CCOCCOCCOCCN(CCOCCOCCOCCN(CC(O)CCCCCCCCCC)CC(O)CCCCCCCCCC)CCN1CCN(CCO)CC1)CC(O)CCCCCCCCCC [L-C12]	84.9	58.1	0.07
0.126	101.5	91.54	CCCCCCCCCCCCC(O)CN(CCOCCOCCOCCN(CCOCCOCCOCCN(CC(O)CCCCCCCCCCCC)CC(O)CCCCCCCCCCCC)CCN1CCN(CCO)CC1)CC(O)CCCCCCCCCCCC [L-C14]	99.0	60.0	0.04
0.085	111.5	92.34	CCCCCCCCCCCCCCC(O)CN(CCOCCOCCOCCN(CCOCCOCCOCCN(CC(O)CCCCCCCCCCCCCC)CC(O)CCCCCCCCCCCCCC)CCN1CCN(CCO)CC1)CC(O)CCCCCCCCCCCCCC [L-C16]	97.2	64.8	0.06
0.182	124.0	91.70	CCCCCCCCCCCCCCCCC(O)CN(CCOCCOCCOCCN(CCOCCOCCOCCN(CC(O)CCCCCCCCCCCCCCCC)CC(O)CCCCCCCCCCCCCCCC)CCN1CCN(CCO)CC1)CC(O)CCCCCCCCCCCCCCCC [L-C18]	98.6	59.7	0.02
